Reference: patent publication US8809342B2, “Glucagon receptor modulators” (Pfizer Inc., priority 2010, dated 2014)

Each compound was assayed against T1, human glucagon receptor (Homo sapiens, UniProt P47871) (assay: Glucagon cAMP assay (Cisbio cAMP detection); further: 100 pM glucagon challenge).
T1 construct: expressed in transfected cells; host or cells: CHO-K1 cells, stably transfected
T1 sequence (P47871 26-477): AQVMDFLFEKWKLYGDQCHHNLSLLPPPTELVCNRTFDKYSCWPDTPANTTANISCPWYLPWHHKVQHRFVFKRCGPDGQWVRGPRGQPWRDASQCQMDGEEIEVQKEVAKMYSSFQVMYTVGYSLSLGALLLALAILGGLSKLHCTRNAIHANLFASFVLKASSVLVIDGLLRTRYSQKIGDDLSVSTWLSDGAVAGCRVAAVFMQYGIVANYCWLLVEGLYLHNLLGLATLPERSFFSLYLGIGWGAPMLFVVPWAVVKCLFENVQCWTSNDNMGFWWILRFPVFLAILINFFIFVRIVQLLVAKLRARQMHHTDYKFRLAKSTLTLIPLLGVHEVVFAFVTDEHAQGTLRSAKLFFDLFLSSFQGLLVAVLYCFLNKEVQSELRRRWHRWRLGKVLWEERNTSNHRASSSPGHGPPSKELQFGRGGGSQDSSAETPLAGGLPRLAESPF
Type: cell-based
With `CC(C)CC(Nc1cnc(C(=O)NCCC(=O)O)cn1)c1ccc(-c2ccc(C(F)(F)F)cc2)cc1` (single isomer, unassigned; isomer 2) [Example 1.18, 3-(5-(3-methyl-1-(4′-(trifluoromethyl)biphenyl-4-yl)butylamino)pyrazine-2-carboxamido)propanoic acid, Isomer 2] the Kb was 120 nM.
With `CC(C)CC(Nc1ccc(-c2ccc(C(F)(F)F)cc2)cc1)c1ccc(C(=O)NCCC(=O)O)cn1` (single isomer, unassigned; isomer 2) [Example 2.6, 3-(6-(3-methyl-1-(4′-(trifluoromethyl)biphenyl-4-ylamino)butyl)nicotinamido)propanoic acid, Isomer 2] the Kb was 500 nM.
`CCCC(Nc1cnc(-c2ccc(C(F)(F)F)cc2)nc1)c1ccc(C(=O)NCCC(=O)O)cc1` (single isomer, unassigned; isomer 2) [Example 2.17, 3-(4-(1-(2-(4-(trifluoromethyl)phenyl)pyrimidin-5-ylamino)butyl)benzamido)propanoic acid, Isomer 2] gave a Kb of 420 nM.
For `CC(C)C[C@@H](Nc1ccc(C(=O)NCCC(=O)O)cn1)c1ccc(-c2ccc(C(F)(F)F)cc2)nc1` (single isomer, unassigned; isomer 2) [Example 4.21, 3-(6-(3-methyl-1-(6-(4-(trifluoromethyl)phenyl)pyridin-3-yl)butylamino)nicotinamido) propanoic acid, Isomer 2], the Kb was 980 nM.
Compound `CC(C)C[C@@H](Nc1ccc(C(=O)NCCC(=O)O)cn1)c1ccc(-c2ccc(C(F)(F)F)cc2)cc1` [Example 1.1, (R)-3-(6-(3-methyl-1-(4′-(trifluoromethyl)biphenyl-4-yl)butylamino)nicotinamido)propanoic acid] has a Kb of 1700 nM.
With `CC(C)C[C@H](Nc1ccc(C(=O)NCCC(=O)O)cn1)c1ccc(-c2ccc(C(F)(F)F)cc2)cc1` [Example 1.3, (−)-(S)-3-(6-(3-methyl-1-(4′-(trifluoromethyl)biphenyl-4-yl)butylamino)nicotinamido)propanoic acid] the Kb was 73 nM.
Compound `CC(C)C[C@H](Nc1ccc(C(=O)NCCC(=O)O)cn1)c1ccc(-c2ccc(C(F)(F)F)cn2)cc1` [Example 4.1, (S)—N-({6-[(3-methyl-1-{4-[5-(trifluoromethyl)pyridin-2-yl]phenyl}butyl)amino]pyridin-3-yl}carbonyl)-beta-alanine] has a Kb of 67 nM.
`CCC[C@H](Nc1cnc(-c2ccc(C(F)(F)F)cc2)cn1)c1ccc(C(=O)NCCC(=O)O)cc1` [Example 4.4, (S)-3-(4-(1-((5-(4-(trifluoromethyl)phenyl)pyrazin-2-yl)amino)butyl)benzamido)propanoic acid] was tested, and the Kb was 66 nM.
Work on `CCC[C@@H](Nc1cnc(-c2ccc(C(F)(F)F)cc2)cn1)c1ccc(C(=O)NCCC(=O)O)cc1` [Example 4.5, (R)-3-(4-(1-((5-(4-(trifluoromethyl)phenyl)pyrazin-2-yl)amino)butyl)benzamido)propanoic acid] yielded a Kb of 820 nM.
In the case of `O=C(O)CCNC(=O)c1ccc(NC(CC2CC2)c2ccc(-c3ccc(C(F)(F)F)cc3)cc2)nc1` (stereo not drawn) [Example 4.14, 3-(6-(2-cyclopropyl-1-(4′-(trifluoromethyl)biphenyl-4-yl)ethylamino)nicotinamido)propanoic acid], the Kb is reported as 110 nM.
In the case of `Cc1cc(C(CC(C)C)Nc2ccc(C(=O)NCCC(=O)O)cn2)cnc1-c1ccc(C(F)(F)F)cc1` (stereo not drawn) [Example 4.15, 3-(6-(3-methyl-1-(5-methyl-6-(4-(trifluoromethyl)phenyl)pyridin-3-yl)butylamino)nicotinamido)propanoic acid], the Kb is reported as 370 nM.
`CCCC(Nc1ncc(C(=O)NCCC(=O)O)cn1)c1ccc(-c2ccc(C(F)(F)F)cc2)cc1` (stereo not drawn) [Example 4.17, 3-(2-(1-(4′-(trifluoromethyl)biphenyl-4-yl)butylamino)pyrimidine-5-carboxamido)propanoic acid] showed a Kb of 340 nM.
`CCCC(Nc1ccc(-c2ccc(C(F)(F)F)cc2)nc1)c1ccc(C(=O)NCCC(=O)O)cc1` (stereo not drawn) [Example 4.18, 3-(4-(1-(6-(4-(trifluoromethyl)phenyl)pyridin-3-ylamino)butyl)benzamido)propanoic acid] showed a Kb of 60 nM.
`CCCC(Nc1ccc(C(=O)NCCC(=O)O)cn1)c1ccc(-c2ccc(C(F)(F)F)cc2)c(OC)c1` (stereo not drawn) [Example 4.23, 3-(6-(1-(2-methoxy-4′-(trifluoromethyl)biphenyl-4-yl)butylamino)nicotinamido)propanoic acid] showed a Kb of 75 nM.
Compound `CCCC(Nc1ccc(C(=O)NCCC(=O)O)cn1)c1ccc(-c2ccc(C(F)(F)F)cc2)cc1OC` (stereo not drawn) [Example 4.24, 3-(6-(1-(3-methoxy-4′-(trifluoromethyl)biphenyl-4-yl)butylamino)nicotinamido)propanoic acid] has a Kb of 88 nM.
For `CCCC(Nc1ccc(C(=O)NCCC(=O)O)cn1)c1cnc(-c2ccc(OC(F)(F)F)cc2)nc1` (stereo not drawn) [Example 4.25, 3-(6-(1-(2-(4-(trifluoromethoxy)phenyl)pyrimidin-5-yl)butylamino)nicotinamido)propanoic acid], the Kb was 94 nM.
Work on `O=C(O)CCNC(=O)c1ccc(NC(c2cnc(-c3ccc(C(F)(F)F)cc3)nc2)C2CCCC2)nc1` (stereo not drawn) [Example 4.28, 3-(6-(cyclopentyl(2-(4-(trifluoromethyl)phenyl)pyrimidin-5-yl)methylamino)nicotinamido)propanoic acid] yielded a Kb of 56 nM.
`CC(C)CC(Nc1cnc(-c2ccc(C(F)(F)F)cc2)nc1)c1ccc(C(=O)NCCC(=O)O)cc1` (stereo not drawn) [Example 4.31, 3-(4-(3-methyl-1-(2-(4-(trifluoromethyl)phenyl)pyrimidin-5-ylamino)butyl)benzamido)propanoic acid] gave a Kb of 55 nM.
Compound `CC(C)CC(Nc1cnc(-c2ccc(C(F)(F)F)cc2)nc1)c1ccc(C(=O)NCCC(=O)O)nc1` (stereo not drawn) [Example 4.32] has a Kb of 2700 nM.
With `COC1CC(C(Nc2ccc(C(=O)NCCC(=O)O)cn2)c2ccc(-c3ccc(C(F)(F)F)cc3)cc2)C1` (stereo not drawn) [Example 4.33, 3-(6-((3-methoxycyclobutyl)(4′-(trifluoromethyl)biphenyl-4-yl)methylamino)nicotinamido)propanoic acid] the Kb was 280 nM.
For `O=C(O)CCNC(=O)c1ccc(NC(c2ccc(-c3ccc(C(F)(F)F)cc3)cc2)C2CCCOC2)nc1` (stereo not drawn) [Example 4.34, 3-(6-((tetrahydro-2H-pyran-3-yl)(4′-(trifluoromethyl)biphenyl-4-yl)methylamino)nicotinamido)propanoic acid], the Kb was 120 nM.
